Legend:
[1] = test system: dNTP-F1 / scarred primer terminus; assay: Sequencing-like kinetic assay: extension of scarred primer terminus with dNTP-F1 by Taq or Taq197; type: biochemical; conditions: 37° C., 40 nM enzyme, 10 nM DNA, 100 nM dNTP-F1
Procedure: Scarred primers were prepared enzymatically; following annealing of natural primers (bearing Rhodamine 110 dye-label, purchased from IDT) to templates, 15 U Klenow fragment (exo−) (New England Biolabs) in its supplied buffer was incubated with 5 μM DNA and 25 μM scarred dNTPs in 100 μL for 20 minutes at room temperature to incorporate scarred nucleotides onto the primer. Upon completion, reaction mixtures were heated at 70° C. for 15 minutes to inactivate Klenow fragment and purified from the scarred dNTPs using a DTR spin column (Edge BioSystems). Scarred primers were observed on an ABI3730 DNA sequencer and conversion to the desired scarred primer was greater than 95%.
Polymerases were added to a mixture containing scarred DNA (prepared in previous section), modified dNTPs, and reaction buffer and incubated at either 37° C. or 50° C. and aliquots removed at variable time points and added directly to a quenching solution containing 100 mM EDTA. Reaction products were characterized on an ABI3730 sequencer using the GeneScan™ LIZ 120® size standard (Applied Biosystems) as a reference. The ratio of peak heights, obtained using ABI Peak Scanner (v1.0), was used to calculate percent primer conversion as a function of time and the data was fit to a first order exponential (Prism 4 by GraphPad).
The mutations found in Sf168, Sf197, and Sf267 were cloned into full length Taq, and extension of a scarred primer terminus was characterized by measuring the rate of incorporation of each dNTP-F1 by Taq or a selected mutant. Taq197 (corresponding to the mutations from Sf197) was the most optimized of the three polymerase mutants, incorporating each dNTP-F1 48- to 377-fold more efficiently than wild type Taq, with no apparent bias toward the identity of the dNTP-F1 or the sequence of the primer, as shown in Table 7 below. Buffer conditions were as follows: 20 mM Tris pH 8.8, 10 mM NaCl, 10 mM KCl, 10 mM ammonium sulfate, 0.1% Triton X-100, 10 mM MgCl2, 37° C., 40 nM enzyme, 10 nM DNA, 100 nM dNTP-F1. N1 nucleotides are scarred (see FIG. 1 panel B).

[2] = test system: incorrect dNTP-F1s opposite dA in the template; assay: Fidelity: misincorporation of the three incorrect dNTP-F1s opposite dA in the template; type: biochemical; conditions: even after 90 minutes
Procedure: To examine the fidelity of Taq197, the misincorporation of the three incorrect dNTP-F1s opposite dA in the template was characterized. […] Thus, based on the detection limit of the assay, it was possible to set an upper limit of 5.6×10^−4 min^−1 for the rate of mispair formation, making correct incorporation of modified nucleotides more than 5,000-fold more efficient than mispair formation.

Substance: Taq: wild type full length T. aquaticus DNA polymerase I (Taq)
- rate of incorporation of dNTP-F1 ([1]; dNTP-F1 C, N1N1N1/N2N2N2 AAA/UUU): 0.002 ± 0.0002 min⁻¹
- rate of incorporation of dNTP-F1 ([1]; dNTP-F1 G, N1N1N1/N2N2N2 UIJU/AAA): 0.14 ± 0.05 min⁻¹
- rate of incorporation of dNTP-F1 ([1]; dNTP-F1 N = A, N1N1N1/N2N2N2 UUU/AAA): 0.011 ± 0.002 min⁻¹
- rate of incorporation of dNTP-F1 ([1]; dNTP-F1 U, N1N1N1/N2N2N2 CCC/GGG): 0.05 ± 0.02 min⁻¹
- synthesis of mispairs [2]: does not measurably synthesize any of the mispairs

From patent publication US20100203524A1, “POLYMERASES AND METHODS OF USE THEREOF” (Helicos Biosciences Corporation, priority 2008, published 2010)
